PubChem BioAssay (NCI)
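Grown in 96-well plates, cells were treated for 48 hours with each compound at five concentrations. Insufficient inhibition: endpoint recorded as highest concentration tested. TGI marks complete inhibition of growth.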

Tests used:
Test in all cases: growth of human tumour cells (NCI), 48 h
[1] = system: 786-0 renal
[2] = system: A498 renal
[3] = system: A549 NSCLC
[4] = system: ACHN renal
[5] = system: BT-549 breast
[6] = system: CAKI-1 renal
[7] = system: CCRF-CEM leukemia
[8] = system: COLO 205 colon
[9] = system: DU-145 prostate
[10] = system: EKVX NSCLC
[11] = system: HCC-2998 colon
[12] = system: HCT-116 colon
[13] = system: HCT-15 colon
[14] = system: HOP-62 NSCLC
[15] = system: HOP-92 NSCLC
[16] = system: HS 578T breast
[17] = system: HT29 colon
[18] = system: IGROV1 ovarian
[19] = system: K-562 leukemia
[20] = system: KM12 colon
[21] = system: LOX IMVI melanoma
[22] = system: M14 melanoma
[23] = system: MALME-3M melanoma
[24] = system: MDA-MB-231 breast
[25] = system: MDA-MB-435
[26] = system: MDA-N
[27] = system: MOLT-4 leukemia
[28] = system: NCI-H226 lung
[29] = system: NCI-H23 lung
[30] = system: NCI-H460 lung
[31] = system: NCI-H522 lung
[32] = system: NCI/ADR-RES ovarian
[33] = system: OVCAR-3 ovarian
[34] = system: OVCAR-4 ovarian
[35] = system: OVCAR-5 ovarian
[36] = system: OVCAR-8 ovarian
[37] = system: PC-3 prostate
[38] = system: RPMI-8226 leukemia
[39] = system: RXF 393 renal
[40] = system: SF-268 CNS
[41] = system: SF-295 CNS
[42] = system: SF-539 CNS
[43] = system: SK-MEL-2 melanoma
[44] = system: SK-MEL-28 melanoma
[45] = system: SK-MEL-5 melanoma
[46] = system: SK-OV-3 ovarian
[47] = system: SN12C renal
[48] = system: SNB-19 CNS
[49] = system: SNB-75 CNS
[50] = system: SW-620 colon
[51] = system: T-47D breast
[52] = system: TK-10 renal
[53] = system: U251 CNS
[54] = system: UACC-257 melanoma
[55] = system: UACC-62 melanoma
[56] = system: UO-31 renal

Measured: TGI

C#C[C@@H](OC(=O)c1ccc([N+](=O)[O-])cc1)[C@@H]1C[C@H]2O[C@@H]([C@H](C/C=C/CC)OC(=O)c3ccc([N+](=O)[O-])cc3)C[C@H]2O1
> 100 µM: [1] | [2] | [3] | [4] | [5] | [6] | [7] | [8] | [9] | [10] | [11] | [12] | [13] | [14] | [15] | [16] | [17] | [18] | [19] | [20] | [21] | [22] | [23] | [24] | [25] | [26] | [27] | [28] | [29] | [30] | [31] | [32] | [33] | [34] | [35] | [36] | [37] | [38] | [39] | [40] | [41] | [42] | [43] | [44] | [45] | [46] | [47] | [48] | [49] | [50] | [51] | [52] | [53] | [54] | [55] | [56]
